Measured values as given in patent US6878713B2, “Generation triple-targeting, chiral, broad-spectrum antimicrobial 7-substituted piperidino-quinolone carboxylic acid derivatives, their preparation, compositions and use as medicaments” (Wockhardt Limited, priority 2001, dated 2005).
Converted amounts (≈) assume the structure as drawn.

System: Fluoroquinolone Sensitive Strains
Assay: In-vitro antimicrobial test (MIC, two-fold serial agar dilution, NCCLS), Table 17
Format: cell-based
Method: The test method was in accordance with the standard NCCLS protocol (Methods for Dilution Antimicrobial Susceptibility Tests for Bacteria that grow Aerobicially, Approved Standards, M7-A5, Fifth Edition, January 2000).
The antibacterial activities (minimum inhibitory concentration: MIC, […]) were determined by using the two-fold serial agar dilution method recommended by NCCLS. The media used for preculture and main culture were Tryptic Soya broth (Difco) and Mueller Hinton medium (Difco), respectively. The Mueller Hinton agar was supplemented with 5% sheep blood for streptococci. Overnight cultures were diluted with buffered saline (pH 7.2) to the final cell density of 5×10^6-10^7 CFU/ml, and each bacterial suspension was applied with a replicator (Denley's multipoint inoculator, UK) onto a series of Mueller-Hinton agar plates containing antibacterial agents at various concentrations. Final inoculum was approximately 10^4 CFU/spot. The plates were incubated for 18 hrs at 37° C. The MIC was defined as the lowest concentration of an antibacterial agent that inhibits the development of visible microbial growth on agar.

[1] = Escherichia coli, ATCC25922, E. coli ATCC 25922
[2] = Staphylococcus aureus, ATCC 25923 / MSSA, MSSA ATCC 25923
[3] = Streptococcus pneumoniae, ATCC49619, S. pneumoniae ATCC 49619

Row | Compound | MICs (E. coli ATCC 25922) | MICs (MSSA ATCC 25923) | MIC [1] | MIC [2] | MIC [3]
1 | Cc1c(N2CCC(O)C(C)C2)c(F)cc2c(=O)c(C(=O)O)cn(C3CC3)c12 (mixture of isomers) [Compound 92, cis/trans-1-Cyclopropyl-6-fluoro-8-methyl-7-(4-hydroxy-3-methyl-1-piperidinyl)-1,4-dihydro-4-oxo-quinoline-3-carboxylic acid] | 0.05 µg/mL | 0.1 µg/mL |  |  | 
2 | COc1c(N2CCC(N)C(C)(C)C2)c(F)cc2c(=O)c(C(=O)O)cn(C3CC3)c12 (racemic) [Compound 17, (±)-1-Cyclopropyl-6-fluoro-1,4-dihydro-8-methoxy-7-(4-amino-3,3-dimethyl-1-piperidinyl)-4-oxo-quinoline-3-carboxylic acid] |  |  | 0.4 µg/mL (≈ 0.991 µM) | 0.4 µg/mL (≈ 0.991 µM) | 
3 | Cc1c(N2CCC(N)C(C)(C)C2)c(F)c(N)c2c(=O)c(C(=O)O)cn(C3CC3)c12 (racemic) [Compound 131, (±)-5-Amino-1-cyclopropyl-6-fluoro-1,4-dihydro-8-methyl-7-(4-amino-3,3-dimethyl-1-piperidinyl)-4-oxo-quinoline-3-carboxylic acid] |  |  | 1.56 µg/mL (≈ 3.88 µM) | 0.8 µg/mL (≈ 1.99 µM) | 
4 | CCc1c(N2CC[C@H](O)[C@H](C)C2)c(F)cc2c(=O)c(C(=O)O)cn(C3CC3)c12 (relative stereo) [Compound 120, cis-1-Cyclopropyl-6-fluoro-8-ethyl-7-(4-hydroxy-3-methyl-1-piperidinyl)-1,4-dihydro-4-oxo-quinoline-3-carboxylic acid] |  |  | 0.8 µg/mL (≈ 2.06 µM) | 0.1 µg/mL (≈ 0.257 µM) | 0.8 µg/mL (≈ 2.06 µM)
5 | COc1c(N2CC(C)C(NC3CC3)C(C)C2)c(F)cc2c(=O)c(C(=O)O)cn(C3CC3)c12 (stereo not drawn) [Compound 48, 1-Cyclopropyl-6-fluoro-1,4-dihydro-8-methoxy-7-(4-cyclopropylamino-3,5-dimethyl-1-piperidinyl)-4-oxo-quinoline-3-carboxylic acid] |  |  | 6.25 µg/mL (≈ 14.1 µM) | 1.56 µg/mL (≈ 3.52 µM) | > 6.25 µg/mL
6 | COc1c(N2CC(C)C(O)C(C)C2)c(F)cc2c(=O)c(C(=O)O)cn(C3CC3)c12 (stereo not drawn) [Compound 145, 1-Cyclopropyl-6-fluoro-1,4-dihydro-8-methoxy-7-(4-hydroxy-3,5-dimethyl-1-piperidinyl)-4-oxo-quinoline-3-carboxylic acid] |  |  | 1.56 µg/mL (≈ 3.86 µM) | 0.025 µg/mL (≈ 0.0618 µM) | 0.4 µg/mL (≈ 0.989 µM)

Other lines, results leading:

Row | MICs (E. coli ATCC 25922) | MICs (MSSA ATCC 25923) | MIC [1] | MIC [2] | MIC [3] | Compound
7 |  |  | 0.4 µg/mL (≈ 0.994 µM) | 0.025 µg/mL (≈ 0.0621 µM) | 0.2 µg/mL (≈ 0.497 µM) | Cc1c(N2CCC(N)C(C)(C)C2)c(F)c(N)c2c(=O)c(C(=O)O)cn(C3CC3)c12 (single isomer, unassigned; (-)) [Compound 133, (−)-5-Amino-1-cyclopropyl-6-fluoro-1,4-dihydro-8-methyl-7-(4-amino-3,3-dimethyl-1-piperidinyl)-4-oxo-quinoline-3-carboxylic acid]
8 |  |  | 0.1 µg/mL (≈ 0.247 µM) | 0.05 µg/mL (≈ 0.123 µM) | 0.1 µg/mL (≈ 0.247 µM) | CCn1cc(C(=O)O)c(=O)c2cc(F)c(N3CC(C)C(NC)C(C)C3)c(OC)c21 (stereo not drawn) [Compound 46, 1-Ethyl-6-fluoro-1,4-dihydro-8-methoxy-7-(4-methylamino-3,5-dimethyl-1-piperidinyl)-4-oxo-quinoline-3-carboxylic acid]
9 |  |  | 0.4 µg/mL (≈ 0.815 µM) | 0.05 µg/mL (≈ 0.102 µM) | 0.2 µg/mL (≈ 0.408 µM) | CCOC(=O)NC1CCN(c2c(F)c(N)c3c(=O)c(C(=O)O)cn(C4CC4)c3c2OC)CC1(C)C (stereo not drawn) [Compound 70, 5-Amino-1-cyclopropyl-6-fluoro-1,4-dihydro-8-methoxy-7-(4-ethoxycarbonylamino-3,3-dimethyl-1-piperidinyl)-4-oxo-quinoline-3-carboxylic acid]
10 |  |  | 0.2 µg/mL (≈ 0.436 µM) | 0.05 µg/mL (≈ 0.109 µM) | 0.2 µg/mL (≈ 0.436 µM) | COc1c(N2CCC(NC3CC3)C(C)(C)C2)c(F)c(N)c2c(=O)c(C(=O)O)cn(C3CC3)c12 (stereo not drawn) [Compound 75, 5-Amino-1-cyclopropyl-6-fluoro-1,4-dihydro-8-methoxy-7-(4-cyclopropylamino-3,3-dimethyl-1-piperidinyl)-4-oxo-quinoline-3-carboxylic acid]
